Experimental data reported in patent publication US20250353852A1, “COMPOUNDS AND COMPOSITIONS THAT INHIBIT PIKFYVE” (Kineta, Inc., priority 2021, published 2025).

What was measured:
FAB1 TDP-43 yeast strain = assay: Propidium iodide viability assay, FAB1 TDP-43 control yeast strain; type: cell-based; settings: for FAB1 TDP-43 (active/inactive): FAB1 TDP-43 yeast model
Description: (§1) Generation of TDP-43 yeast model expressing human PIKfyve. Human PIKFYVE (“entry clone”) was cloned into […] (“destination vector”) according to standard Gateway cloning protocols (Invitrogen, Life Technologies). The resulting pAG416GPD-PIKFYVE plasmids were amplified in E. coli and plasmid identity confirmed by restriction digest and Sanger sequencing. […]+) (FIG. 2). Transformed yeast were plated on solid agar plates with complete synthetic media lacking uracil (CSM-ura) and containing 2% glucose. Individual colonies harboring the control or PIKFYVE TDP-43 plasmids were recovered. A plasmid containing wild-type TDP-43 under the transcriptional control of the GAL1 promoter and containing the […] as a selectable marker was transformed into the […]-PIKFYVE yeast strain (FIG. 1). Transformed yeast were plated on CSM-ura containing 2% glucose and 200 μg/mL G418 after overnight recovery in media lacking antibiotic. Multiple independent isolates were further evaluated for cytotoxicity and TDP-43 expression levels. Viability Assay. A control yeast strain with the wild-type yeast FAB1 gene and TDP-43 (“FAB1 TDP-43”, carries empty pAG416 plasmid), and the “PIKFYVE TDP-43” yeast strain, were assessed for toxicity using a propidium iodide viability assay. Both yeast strains were transferred from solid CSM-ura/2% glucose agar plates into 3 mL of liquid CSM-ura/2% glucose media for 6-8 hours at 30° C. with aeration. Yeast cultures were then diluted to an optical density at 600 nm wavelength (OD600) of 0.005 in 3 mL of CSM-ura/2% raffinose and grown overnight at 30° C. with aeration to an OD600 of 0.3-0.8. Log-phase overnight cultures were diluted to OD600 of 0.005 in CSM-ura containing either 2% raffinose or galactose and 150 μL dispensed into each well of a flat bottom 96-well plates. Compounds formulated in 100% dimethyl sulfoxide (DMSO) were serially diluted in DMSO and 1.5 μL diluted compound transferred to the 96-well plates using a multichannel pipet. Wells containing DMSO alone were also evaluated as controls for compound effects. Tested concentrations ranged from 15 μM to 0.11 μM. Cultures were immediately mixed to ensure compound distribution and covered plates incubated at 30° C. for 24 hours in a stationary, humified incubator. Upon the completion of incubation, cultures were assayed for viability using propidium iodide (PI) to stain for dead/dying cells. A working solution of PI was made where, for each plate, 1 μL of 10 mM PI was added to 10 mL of CSM-ura (raffinose or galactose). […] The overnight 96-well assay plate was then mixed with a multichannel pipet and 50 μL transferred to the PI-containing plate. This plate was then incubated for 30 minutes at 30° C. in the dark. A benchtop flow cytometer (Miltenyi MACSquant) was then used to assess red fluorescence (B2 channel), forward scatter, and side scatter (with following settings: gentle mix, high flow rate, fast measurement, 10,000 events). Intensity histograms were then gated for “PI-positive” or “PI-negative” using the raffinose and galactose cultures treated with DMSO as controls. The DMSO controls for raffinose or galactose-containing cultures were used to determine the window of increased cell death and this difference set to 100. All compounds were similarly gated and then compared to this maximal window to establish the percent reduction in PI-positive cells.

[1] = tested on: PIKFYVE TDP-43 yeast strain; assay: Propidium iodide viability assay, PIKFYVE TDP-43 yeast strain; type: cell-based; settings: for PIKfyve TDP-43 (active/inactive): PIKFYVE TDP-43 yeast model
Description: as §1

[2] = target: full-length human PIKFYVE (Homo sapiens (Human), UniProt Q9Y2I7, L932S/Q1183K/Q995L/S1033A/S696N/T998S); assay: PIKfyve biochemical assay (ADP-Glo Kinase assay, Carna Biosciences); settings: class symbols
full-length human PIKFYVE, sequence (Q9Y2I7 whole entry S696N/L932S/Q995L/T998S/S1033A/Q1183K, the tested form may be a part): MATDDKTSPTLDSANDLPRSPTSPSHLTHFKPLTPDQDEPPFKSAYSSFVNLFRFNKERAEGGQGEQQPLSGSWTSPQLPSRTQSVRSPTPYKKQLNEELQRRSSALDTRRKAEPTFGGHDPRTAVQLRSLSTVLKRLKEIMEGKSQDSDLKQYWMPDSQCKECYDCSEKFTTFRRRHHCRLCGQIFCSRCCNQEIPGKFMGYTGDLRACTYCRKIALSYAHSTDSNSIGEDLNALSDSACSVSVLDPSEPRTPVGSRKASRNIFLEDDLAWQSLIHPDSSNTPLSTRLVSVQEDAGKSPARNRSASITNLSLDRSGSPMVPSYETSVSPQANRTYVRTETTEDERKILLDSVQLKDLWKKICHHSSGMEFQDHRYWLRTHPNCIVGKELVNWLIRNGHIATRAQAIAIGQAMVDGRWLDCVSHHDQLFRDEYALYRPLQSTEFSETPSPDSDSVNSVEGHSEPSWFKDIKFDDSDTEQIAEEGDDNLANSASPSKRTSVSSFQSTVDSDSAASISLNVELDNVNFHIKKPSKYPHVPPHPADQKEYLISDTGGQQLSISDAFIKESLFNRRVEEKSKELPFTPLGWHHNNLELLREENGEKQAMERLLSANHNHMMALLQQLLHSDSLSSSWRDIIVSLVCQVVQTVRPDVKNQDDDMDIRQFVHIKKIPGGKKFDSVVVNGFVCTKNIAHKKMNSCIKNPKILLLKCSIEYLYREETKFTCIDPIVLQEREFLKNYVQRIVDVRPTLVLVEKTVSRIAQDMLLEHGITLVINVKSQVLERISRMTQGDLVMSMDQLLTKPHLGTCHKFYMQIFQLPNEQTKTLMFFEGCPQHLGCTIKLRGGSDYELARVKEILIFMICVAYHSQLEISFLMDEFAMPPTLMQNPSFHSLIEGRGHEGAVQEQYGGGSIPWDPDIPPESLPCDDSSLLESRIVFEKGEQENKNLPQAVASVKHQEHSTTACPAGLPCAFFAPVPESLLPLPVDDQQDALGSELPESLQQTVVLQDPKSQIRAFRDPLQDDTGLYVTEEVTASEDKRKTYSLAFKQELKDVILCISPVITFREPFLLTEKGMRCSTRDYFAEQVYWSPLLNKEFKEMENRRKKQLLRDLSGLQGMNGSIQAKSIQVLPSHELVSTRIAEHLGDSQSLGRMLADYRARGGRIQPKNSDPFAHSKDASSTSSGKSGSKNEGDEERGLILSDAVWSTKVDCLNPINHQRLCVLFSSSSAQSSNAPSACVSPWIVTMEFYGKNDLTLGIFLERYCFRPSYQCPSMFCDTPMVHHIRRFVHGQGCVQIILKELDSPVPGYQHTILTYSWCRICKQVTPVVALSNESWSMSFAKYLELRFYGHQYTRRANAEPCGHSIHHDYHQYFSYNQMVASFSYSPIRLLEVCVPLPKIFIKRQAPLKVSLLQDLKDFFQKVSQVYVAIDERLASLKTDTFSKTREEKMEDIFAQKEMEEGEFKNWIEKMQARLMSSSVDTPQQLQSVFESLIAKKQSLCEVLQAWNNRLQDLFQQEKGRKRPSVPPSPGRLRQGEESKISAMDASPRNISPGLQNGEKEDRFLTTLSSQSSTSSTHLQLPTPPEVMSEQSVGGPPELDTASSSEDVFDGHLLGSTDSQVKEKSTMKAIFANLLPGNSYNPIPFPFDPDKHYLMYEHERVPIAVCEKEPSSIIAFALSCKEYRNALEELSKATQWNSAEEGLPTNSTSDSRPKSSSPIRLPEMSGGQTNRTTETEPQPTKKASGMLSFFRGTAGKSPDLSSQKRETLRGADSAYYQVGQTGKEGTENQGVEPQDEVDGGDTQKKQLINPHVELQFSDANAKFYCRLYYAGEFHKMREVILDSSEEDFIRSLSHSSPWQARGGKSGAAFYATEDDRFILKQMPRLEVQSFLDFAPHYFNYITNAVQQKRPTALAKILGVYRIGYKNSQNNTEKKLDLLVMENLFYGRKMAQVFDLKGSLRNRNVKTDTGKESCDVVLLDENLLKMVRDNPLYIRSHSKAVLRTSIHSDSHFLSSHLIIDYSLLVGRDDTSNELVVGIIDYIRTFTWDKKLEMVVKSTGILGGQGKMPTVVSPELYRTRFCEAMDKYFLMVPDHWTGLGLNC
Procedure, shortened: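 N-terminal GST-fused full-length PIKFYVE from baculovirus, incubated with compound, substrate and ATP in 50 mM MOPS, 1 mM DTT, pH7.2 for 1 hour at room temperature. ADP formed detected by ADP-Glo luminescence; IC50 from four-parameter logistic fit of % inhibition.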

U2OS cells = assay: EEA1 assay (endosomal vesicle enlargement as surrogate readout of PIKFyve inhibition); type: cell-based; settings: Homo sapiens, 3 hours of treatment, class symbols
Description: EEA1 Assay. Genetic or pharmacological disruption of PIKfyve activity results in enlargement of endosomal vesicles. This enlargement was utilized as a surrogate readout of PIKFyve inhibition for routine triage of PIKfyve inhibitors. U2OS cells grown in 96-well assay plates were treated with compound diluted in DMEM media containing 10% fetal bovine serum. After 3 hours of treatment, cells were fixed with paraformaldehyde, permeabilized with 0.2% Triton-X in phosphate buffered saline and stained against EEA1. During the secondary antibody staining, cells were also stained with CellMask DeepRed and Hoechst to detect cytoplasms and nuclei respectively. Endosomal structures were visualized using a high content imager at 40× magnification. Images were analyzed using a linear classifier algorithm integrating EEA1 spot size, intensity and texture trained on images of cells treated with the potent reference compound APY0201. Compound activity was calculated by subtracting the DMSO signal and calculating percentage activity relative to maximal APY0201 activity. IC50s were then calculated from concentration vs. % inhibition data by logistic regression.

Compound | FAB1 TDP-43 (active/inactive) (FAB1 TDP-43 yeast strain) | PIKfyve TDP-43 (active/inactive) [1] | further results
N#Cc1cc(N2CCOCC2)n2nc(-c3ccncc3)cc2n1 [drawing 332] | Inactive | Inactive | –
CN(C)c1cc(N2CCOCC2)n2nc(-c3ccncc3)cc2n1 | Inactive | Inactive | –
Cn1c(-c2ccncc2)nc2c(N3CCOCC3)ncnc21 | Inactive | Inactive | –
Cc1cccc(/C=N/Nc2cc(N3CCOCC3)n3nc(-c4ccncc4)cc3n2)c1 [APYO201, reference compound] | – | – | viable cells in FAB1 TDP-43 (FAB1 TDP-43 yeast strain; across a range of compound concentrations (only 0.23 μM is shown), FIG. 5): no increase in viable cells; population of propidium iodide-positive dead cells in PIKFYVE TDP-43 ([1]; 0.23 μM, FIG. 6): reduced the population of propidium iodide-positive dead cells
Cc1cccc(/C=N/Nc2nc(N3CCOCC3)c3nc(-c4ccncc4)n(C)c3n2)c1 [drawing 329] | Inactive | Active | –
Cc1cccc(/C=N/Nc2cc(N3CCOCC3)n3nc(-c4ccncc4)cc3n2)c1 [drawing 327] | Inactive | Active | –
COc1cccc(-c2ccn(-c3cc(N4CCOCC4)n4nc(-c5ccncc5)cc4n3)n2)c1 [Compound 71, 4-(5-(3-(3-methoxyphenyl)-1H-pyrazol-1-yl)-2-(pyridin-4-yl)pyrazolo[1,5-a]pyrimidin-7-yl)morpholine] | – | – | IC50 [2]: 10 to 100 nM; IC50 (U2OS cells): 100 to 1000 nM
Cc1cccc(-c2ccn(-c3cc(N4CCOCC4)n4nc(-c5cccnc5)cc4n3)n2)c1 [Compound 79] | – | – | IC50 [2]: < 10 nM; IC50 (U2OS cells): 100 to 1000 nM
Cc1cccc(/C=N/Nc2cc(N3CC4CC3CO4)n3nc(-c4ccncc4)cc3n2)c1 (stereo not drawn) [drawing 328] | Inactive | Active | –
